Data as given in ChEMBL document CHEMBL3600384, “Highly potent artemisinin-derived dimers and trimers: Synthesis and evaluation of their antimalarial, antileukemia and antiviral activities” (Bioorg Med Chem, 2015).
pIC50: −log10 of the molar value. Active and inactive are the calls of the source. No cut-off for these calls is given here.

Legend:
Human betaherpesvirus 5 = test: Antiviral activity against Human cytomegalovirus AD169 expressing GFP infected in HFF assessed as inhibition of viral replication after 7 days; type: functional, organism-based; details: for pIC50: Human betaherpesvirus 5, AD169, 168 h, read-out: IC50
Plasmodium falciparum [1] = test: Antimalarial activity against Plasmodium falciparum 3D7 infected in human erythrocytes assessed as parasite growth inhibition after 72 hrs by SYBR Green I assay; type: functional, organism-based; details: 3D7, 72 h
CCRF-CEM [2] = test: Cytotoxicity against human CCRF-CEM cells assessed as cell viability after 72 hrs by resazurin assay; type: functional, cell-based
[3] = Cytotoxicity against human CEM/ADR5000 cells assessed as cell viability after 72 hrs by resazurin assay; type: functional, cell-based; details: ADR5000, 72 h
CCRF-CEM [4] = test: Resistance index, ratio of IC50 for human CEM/ADR5000 cells to IC50 for human CCRF-CEM cells; type: functional
[5] = Stability of the compound in freezing/thawing condition; type: physicochemical
[6] = Stability of the compound up to 56 degC; type: physicochemical
HFF [7] = test: Cytotoxicity against HFF up to 10 uM by light microscopic analysis; type: cell-based; details: human
HFF [8] = test: Cytotoxicity against HFF up to 10 uM by fluorescence microscopic analysis; type: cell-based; details: human
[9] = Potency index, ratio of doxorubicin IC50 to compound IC50 for human CEM/ADR5000 cells; type: functional
ADR5000 = test: Cytotoxicity against human CEM/ADR5000 cells assessed as cell viability at 400 uM after 72 hrs by resazurin assay; type: functional, cell-based
Plasmodium falciparum [10] = test: Antimalarial activity against Plasmodium falciparum NF54 infected in human erythrocytes after 48 hrs by [3H]hypoxanthine incorporation assay; type: functional, organism-based

C[C@H]1[C@H](OC(=O)CCC(=O)NCC(O)CNC(=O)CCC(=O)O[C@@H]2O[C@@H]3O[C@@]4(C)CC[C@H]5[C@H](C)CC[C@@H]([C@H]2C)[C@@]35OO4)O[C@@H]2O[C@@]3(C)CC[C@H]4[C@H](C)CC[C@@H]1[C@@]24OO3 (stereo not given in full)
pIC50 (Human betaherpesvirus 5): 5.68

C[C@H]1[C@H](OC(=O)CCC(=O)O[C@@H]2O[C@@H]3O[C@@]4(C)CC[C@H]5[C@H](C)CC[C@@H]([C@H]2C)[C@@]35OO4)O[C@@H]2O[C@@]3(C)CC[C@H]4[C@H](C)CC[C@@H]1[C@@]24OO3
pIC50 (Plasmodium falciparum [1]): 8.59
pIC50 (CCRF-CEM [2]): 5.56
pIC50 [3]: 5.55
Ratio IC50 (CCRF-CEM [4]): 1.01
pIC50 (Human betaherpesvirus 5): 5.98

C[C@H]1[C@H](OC(=O)CCC(=O)OCC(C[C@H]2O[C@@H]3O[C@@]4(C)CC[C@H]5[C@H](C)CC[C@@H]([C@H]2C)[C@@]35OO4)C[C@H]2O[C@@H]3O[C@@]4(C)CC[C@H]5[C@H](C)CC[C@@H]([C@H]2C)[C@@]35OO4)O[C@@H]2O[C@@]3(C)CC[C@H]4[C@H](C)CC[C@@H]1[C@@]24OO3
pIC50 (Plasmodium falciparum [1]): 7.89
pIC50 (CCRF-CEM [2]): 8.70
pIC50 [3]: 6.70
Ratio IC50 (CCRF-CEM [4]): 100
pIC50 (Human betaherpesvirus 5): 7.40
Stability [5]: Stable
Stability [6]: Stable
Activity (HFF [7]): Non-toxic
Activity (HFF [8]): Non-toxic
Ratio IC50 [9]: 3

COc1cccc2c1C(=O)c1c(O)c3c(c(O)c1C2=O)C[C@@](O)(C(=O)CO)C[C@@H]3O[C@H]1C[C@H](N)[C@H](O)[C@H](C)O1 [DOXORUBICIN]
pIC50 (CCRF-CEM [2]): 8.52
pIC50 [3]: 5.79
Ratio IC50 (CCRF-CEM [4]): 536.67

C[C@H]1[C@H](OC(=O)CCC(=O)O)O[C@@H]2O[C@@]3(C)CC[C@H]4[C@H](C)CC[C@@H]1[C@@]24OO3 [ARTESUNATE]
pIC50 (Plasmodium falciparum [1]): 8.05
pIC50 (CCRF-CEM [2]): 7.15
pIC50 [3]: 6.72
Ratio IC50 (CCRF-CEM [4]): 2.71
pIC50 (Human betaherpesvirus 5): 5.42

C[C@H]1[C@@H](CCCO)O[C@@H]2O[C@@]3(C)CC[C@H]4[C@H](C)CC[C@@H]1[C@@]24OO3
pIC50 (Plasmodium falciparum [1]): 7.94
pIC50 (CCRF-CEM [2]): 3.76
Activity (ADR5000): inactive

C[C@H]1[C@@H](CC(CO)C[C@H]2O[C@@H]3O[C@@]4(C)CC[C@H]5[C@H](C)CC[C@@H]([C@H]2C)[C@@]35OO4)O[C@@H]2O[C@@]3(C)CC[C@H]4[C@H](C)CC[C@@H]1[C@@]24OO3 (stereo not given in full)
pIC50 (Plasmodium falciparum [1]): 8.96
pIC50 (Plasmodium falciparum [10]): 9.06
pIC50 (CCRF-CEM [2]): 7.70
pIC50 [3]: 7.30
Ratio IC50 (CCRF-CEM [4]): 2.5

C[C@H]1[C@@H](O)O[C@@H]2O[C@@]3(C)CC[C@H]4[C@H](C)CC[C@@H]1[C@@]24OO3 [ARTENIMOL]
pIC50 (Plasmodium falciparum [1]): 8.60
pIC50 (CCRF-CEM [2]): 7.05
pIC50 [3]: 6.57
Ratio IC50 (CCRF-CEM [4]): 3
pIC50 (Human betaherpesvirus 5): < 5.00

C[C@H]1[C@@H](CCCOC(=O)C[C@H]2O[C@@H]3O[C@@]4(C)CC[C@H]5[C@H](C)CC[C@@H]([C@H]2C)[C@@]35OO4)O[C@@H]2O[C@@]3(C)CC[C@H]4[C@H](C)CC[C@@H]1[C@@]24OO3
pIC50 (Plasmodium falciparum [1]): 8.59
pIC50 (CCRF-CEM [2]): 7.05
pIC50 [3]: 6.70
Ratio IC50 (CCRF-CEM [4]): 2.22
pIC50 (Human betaherpesvirus 5): 6.51
Ratio IC50 [9]: 3

C[C@H]1[C@H](OC(=O)CCC(=O)NCCCCCCCCNC(=O)CCC(=O)O[C@@H]2O[C@@H]3O[C@@]4(C)CC[C@H]5[C@H](C)CC[C@@H]([C@H]2C)[C@@]35OO4)O[C@@H]2O[C@@]3(C)CC[C@H]4[C@H](C)CC[C@@H]1[C@@]24OO3
pIC50 (Human betaherpesvirus 5): < 5.00

C[C@H]1[C@@H](OCC(C[C@H]2O[C@@H]3O[C@@]4(C)CC[C@H]5[C@H](C)CC[C@@H]([C@H]2C)[C@@]35OO4)C[C@H]2O[C@@H]3O[C@@]4(C)CC[C@H]5[C@H](C)CC[C@@H]([C@H]2C)[C@@]35OO4)O[C@@H]2O[C@@]3(C)CC[C@H]4[C@H](C)CC[C@@H]1[C@@]24OO3
pIC50 (Plasmodium falciparum [1]): 7.89
pIC50 (CCRF-CEM [2]): 8.70
pIC50 [3]: 6.31
Ratio IC50 (CCRF-CEM [4]): 245
IC50 (Human betaherpesvirus 5): ND(toxic)
Activity (HFF [7]): Non-toxic
Activity (HFF [8]): Non-toxic
Ratio IC50 [9]: 3

C[C@@H]1CC[C@H]2[C@@H](C)C(=O)O[C@@H]3O[C@@]4(C)CC[C@@H]1[C@]32OO4 [ARTEMISININ]
Ratio IC50 (CCRF-CEM [4]): 0.73
pIC50 (Human betaherpesvirus 5): < 5.00

Nc1nc2c(ncn2COC(CO)CO)c(=O)[nH]1 [GANCICLOVIR]
pIC50 (Human betaherpesvirus 5): 5.59
